Test results taken from patent publication US20220274947A1, “NOVEL HETEROARYL-TRIAZOLE COMPOUNDS AS PESTICIDES” (Bayer Aktiengesellschaft, priority 2019, published 2022).

What was measured:
Type in all cases: in vivo
[1] = system: Culex quinquefasciatus strain P00; experiment: Culex quinquefasciatus test (CULXFA surface treatment & contact assay); details: surface concentration 20 mg/m^2, glazed tile, exposure 30 minutes, 24 hours after contact, read-out: efficacy (mortality)
Protocol: Culex quinquefasciatus Test (CULXFA Surface Treatment & Contact Assay) Solvent: Aceton+2000 ppm rapeseed oil methyl ester (RME)
(§1) In order to produce a sufficient, active ingredient containing solution it is necessary to solve the test compound in the solvent-mix (acetone at 2 mg/ml/RME 2 000 ppm). This solution is pipetted onto a glazed tile and after evaporation of the acetone, adult mosquitoes of the species Culex quinquefasciatus strain P00 are placed onto the dried surface. The exposure time is 30 minutes. Mortality in percent (%) is determined 24 hours after contact of the insects to the treated surface. 100% mortality means that all tested insects are dead, whereas 0% means that no insect died.

[2] = system: Spodoptera frugiperda; experiment: Spodoptera frugiperda spray test; details: in Zea mays, 168 h, read-out: activity (mortality)
In short: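 Percent kill of fall armyworm caterpillars was assessed 7 days after infesting dried, treated maize leaf sections. Treatment was a spray of compound in acetone/dimethylformamide, diluted with water containing emulsifier at 1000 ppm.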

[3] = system: Ctenocephalides felis; experiment: Ctenocephalides felis oral test (CTECFE Oral); details: 48 h, read-out: activity (mortality)
In short: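 Percent mortality was recorded 2 days after roughly 20 adult Ctenocephalides felis fed on treated cattle blood. The blood was warmed to 37 °C beneath a parafilm membrane, with the fleas kept at room temperature. Compound was dissolved in DMSO and diluted into the blood to test concentration.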

[4] = system: Aedes aegypti strain MONHEIM; experiment: Aedes aegypti test (AEDSAE surface treatment & contact assay); details: exposure 30 minutes, 24 hours after contact, read-out: efficacy (mortality); for mortality at 4 mg/m2: surface concentration 4 mg/m^2, glazed tile; for mortality at 20 mg/m2: surface concentration 20 mg/m^2, glazed tile
In short: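 Compound dissolved in acetone (2 mg/ml) with 2000 ppm rapeseed oil methyl ester, pipetted onto glazed tile and dried. Adult mosquitoes exposed on the surface for 30 min; percent mortality scored 24 h after contact.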

[5] = system: Rhipicephalus microplus; experiment: Rhipicephalus (Boophilus) microplus in-vitro contact test, larval cattle tick, strain Parkhurst (BOOPMI Cont); details: application rate 5 μg/cm^2 (=500 g/ha), tick larvae, after 48 hours, read-out: activity (efficacy: 100% means all larvae are dead or moribund)
In short: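 After 48 h at 27° C. and 85% humidity, percent dead or moribund larvae was scored from negative geotactic behaviour. Larvae (20-50, Parkhurst strain, synthetic pyrethroid-resistant) were exposed in tubes coated with compound from acetone, 900 ppm corresponding to 5 μg/cm^2.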

[6] = system: Rhipicephalus microplus; experiment: Rhipicephalus (Boophilus) microplus injection test (BOOPMI Inj); details: 168 h, injection into adult engorged female ticks, egg deposition after 7 days, read-out: activity (efficacy: 100% means all eggs are infertile); for pest or weed control at 0.004 mg: application rate 4 μg/tick; for pest or weed control at 0.02 mg: application rate 20 μg/tick
In short: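 Compound in DMSO, 1 μL, injected abdominally into five adult engorged females, which were then held in a climate chamber. Read-out is egg fertility, scored from deposition at 7 days, with unclear eggs followed to hatching (~42 days); 0% means all eggs fertile, 100% all infertile.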

[7] = system: Rhipicephalus sanguineus; experiment: Rhipicephalus sanguineus in-vitro contact test, adult brown dog ticks (RHIPSA Cont); details: 48 h, after 48 hours, read-out: activity (efficacy: 100% means all ticks are dead or moribund); for pest or weed control at 5 µg/cm2, 500 g/ha: application rate 5 μg/cm^2 (=500 g/ha); for pest or weed control at 1 µg/cm2, 100 g/ha: application rate 1 μg/cm^2 (=100 g/ha)
In short: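 Compound in acetone was coated onto the inner walls of glass tubes and dried by rotation before adult brown dog ticks were exposed. Efficacy was scored at 48 h. Ticks unable to climb away from a 45–50 °C heating plate within 5 min counted as dead or moribund.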

[8] = system: Diabrotica balteata; experiment: Diabrotica balteata spray test; details: 168 h, wheat seeds, larvae, after 7 days, read-out: activity (efficacy: 100% means all seedlings have grown up like in the untreated, uninfected control); for pest or weed control at 160 µg/disc, 500 g/ha: application rate 500 g/ha (=160 μg/well); for pest or weed control at 32 µg/disc, 100 g/ha: application rate 100 g/ha (=32 μg/well)
In short: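 Efficacy (%) was scored 7 days after spraying, with 100% meaning growth like the untreated, uninfected control and 0% meaning no seedling grew. Spray solutions of compound in acetone/DMF with emulsifier-containing water went onto 1-day-germinated wheat seeds, and each unit was then infested with 10-20 banded cucumber beetle larvae.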

[9] = system: Ctenocephalides felis; experiment: Ctenocephalides felis in-vitro contact test, adult cat flea (CTECFE Cont); details: application rate 5 μg/cm^2 (=500 g/ha), adult cat fleas, after 48 hours, read-out: activity (efficacy: 100% means all fleas are dead or moribund)
In short: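 Efficacy, as percent of fleas dead or moribund, was scored 48 h after adults (5-10 per tube) were placed in glass tubes whose walls carried dried compound at 5 μg/cm^2 (900 ppm solution). Moribund meant failing to climb away from a 45-50° C. hot plate within 5 min.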

[10] = system: Myzus persicae; experiment: Myzus persicae spray test; details: in Brassica rapa, foliar, 120 h; for mortality at 500 g/ha: read-out: activity (mortality), application rate 500 g/ha, spray, Chinese cabbage leaf disks, after 5 days
In short: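 Aphid mortality in % was assessed 5 days after spraying; leaf disks of Brassica pekinensis carrying mixed-instar green peach aphids were treated. Spray preparation: active compound in acetone plus dimethylformamide, diluted with emulsifier-containing water (1000 ppm).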

[11] = system: Nezara viridula; experiment: Nezara viridula spray test; details: in Hordeum vulgare, 96 h, application rate 500 g/ha, barley plants, larvae, after 4 days
In short: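 Mortality was read at day 4 (0% = no kill, 100% = total kill) after spraying larva-infested barley plants. Test solutions were made from an acetone/DMF concentrate diluted with water holding 1000 ppm alkylarylpolyglycol ether emulsifier.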

[12] = system: Anopheles funestus strain FUMOZ-R; experiment: Anopheles funestus test (ANPHFU surface treatment & contact assay); details: exposure 30 minutes, 24 hours after contact, read-out: efficacy (mortality); for mortality at 4 mg/m2: surface concentration 4 mg/m^2, glazed tile; for mortality at 20 mg/m2: surface concentration 20 mg/m^2, glazed tile
Protocol: Anopheles funestus Test (ANPHFU Surface Treatment & Contact Assay) Solvent: Aceton+2000 ppm rapeseed oil methyl ester (RME)
as §1, with “2000” for “2 000”, “Anopheles funestus” for “Culex quinquefasciatus”, “FUMOZ-R (Hunt et al., Med. Vet. Entomol. 2005 September; 19(3): 271-275)” for “P00”

[13] = system: Musca domestica strain WHO—N; experiment: Musca domestica test (MUSCDO surface treatment & contact assay); details: surface concentration 20 mg/m^2, glazed tile, exposure 30 minutes, 24 hours after contact, read-out: efficacy (mortality)
In short: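 Compound dissolved in acetone (2 mg/ml) with 2000 ppm rapeseed oil methyl ester and pipetted onto glazed tile; after acetone evaporation, adult flies exposed to dried surface for 30 minutes. Mortality (%) scored 24 hours after contact.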

SMILES	mortality at 20 mg/m2 [1]	mortality at 100 g/ha [2]	mortality at 500 g/ha [2]	mortality at 100 ppm [3]	mortality at 4 mg/m2 [4]	mortality at 20 mg/m2 [4]	pest or weed control at 5 µg/cm2 [5]	pest or weed control at 0.004 mg [6]	pest or weed control at 0.02 mg [6]	pest or weed control at 5 µg/cm2, 500 g/ha [7]	pest or weed control at 160 µg/disc, 500 g/ha [8]	pest or weed control at 5 µg/cm2 [9]	mortality at 100 g/ha ([10]; read-out: activity (mortality), application rate 100 g/ha, spray, Chinese cabbage leaf disks, after 5 days)	mortality at 500 g/ha [10]	mortality at 500 g/ha [11]	pest or weed control at 32 µg/disc, 100 g/ha [8]	mortality at 4 mg/m2 [12]	mortality at 20 mg/m2 [12]	mortality at 20 mg/m2 [13]	pest or weed control at 1 µg/cm2, 100 g/ha [7]
C[C@H](NC(=O)c1cc(Cl)cc(C(F)(F)F)c1)c1ncnn1-c1cnc(C#N)cn1 [II-1]	80 to 100%	100%	100%	100%	80 to 100%	80 to 100%	90%	100%	100%	80%	100%	90%	–	–	–	–	–	–	–	–
CC(C)C(=O)Nc1ccc(-n2ncnc2[C@H](C)NC(=O)c2cc(Cl)cc(C(F)(F)F)c2)nc1 [II-2, 3-chloro-N-[(1S)-1-{1-[5-(isobutyrylamino)pyridin-2-yl]-1H-1,2,4-triazol-5-yl}ethyl]-5-(trifluoromethyl)benzamide]	80 to 100%	–	–	100%	–	–	100%	100%	100%	–	100%	90%	100%	90%	90%	100%	–	–	–	–
C[C@H](NC(=O)c1cccc(C(F)(F)F)n1)c1ncnn1-c1ccc(C#N)cn1 [II-4]	80 to 100%	100%	100%	–	–	80 to 100%	–	–	100%	100%	100%	–	–	–	–	80%	80 to 100%	80 to 100%	80 to 100%	100%
C[C@H](NC(=O)c1cc(Cl)cc(I)c1)c1ncnn1-c1ccc(C#N)cn1 [II-23]	–	100%	100%	–	–	80 to 100%	100%	100%	100%	–	100%	80%	–	–	–	100%	–	80 to 100%	80 to 100%	–
CC(C)N(C)C(=O)c1ccc(-n2ncnc2[C@H](C)NC(=O)c2cc(Cl)cc(C(F)(F)F)c2)nc1 [II-26]	–	83%	100%	–	–	80 to 100%	100%	100%	100%	80%	–	100%	–	100%	–	–	–	80 to 100%	–	100%
C[C@H](NC(=O)c1cc(Cl)cc(C(F)(F)F)c1)c1ncnn1-c1cc(-n2ccc(C(F)(F)F)n2)ccn1 [II-42]	80 to 100%	100%	100%	–	–	–	90%	80%	0%	–	100%	–	–	–	–	100%	–	80 to 100%	–	–
Cc1nc([C@H](C)NC(=O)c2cccc(C(F)(F)F)n2)n(-c2ccc(C#N)cn2)n1 [II-48]	–	–	–	90%	80 to 100%	80 to 100%	100%	100%	100%	100%	–	–	–	–	–	100%	80 to 100%	80 to 100%	–	100%
C[C@H](NC(=O)c1cc(Cl)cc(OC(F)(F)F)c1)c1ncnn1-c1ncc(OC(F)F)cn1 [II- 30]	80 to 100%	–	–	–	–	–	–	–	–	–	–	–	–	–	–	–	–	–	–	–
